{
  "source": "patent EP0519877B1",
  "about": "“3-Acylamino-2-pyrrolidinones as enhancers of the processes of learning and memory and pharmaceutical compositions containing same” (Sigma-Tau Industrie Farmaceutiche Riunite S.p.A., priority 1991, dated 1992)",
  "test_system": "Male CD1 mice",
  "assay": "Passive avoidance test following ECS-induced amnesia",
  "assay_type": "in vivo",
  "settings": "i.p., 30 minutes before training, retention assessed 24 hours later",
  "description": "In order to assess the antiamnesic activity the passive avoidance test in mice was used.\nMale CD1 mice (Charles River) weighting 25-26 g fed on a normal diet were used for the ECS-induced amnesia test.\nThe compounds were administered i.p.at doses equimolar to 9 and 0.9 mg/kg […]. The compounds were dissolved in saline.\nThe apparatus for passive avoidance conditioning was a black plastic chamber (42 x 42 cm, height 40 cm) provided with a floor constructed of metal rods that could be electrified. From the front wall extended a white runway, 30 cm long and 10 cm wide provided with side walls 12 cm high, which led into the box through a guillotine door.\n30 minutes following treatment with the compounds, the animals were placed on the runway. After one minute of adaptation, the door was raised and the time employed by the animal to enter the darkened box with all four feet was recorded.\nUpon entry, the guillotine door was lowered and three seconds thereafter the rods were electrified, 0.24 mA for 2 seconds.\nThe mouse was then removed from the chamber and immediately administered an electroshock delivered through spring clips attached to the ears (square wave, intensity 20 mA, amplitude 0.6 msec, duration 0.5 s, frequency 50 Hz).\nImmediately thereafter the animal was placed in the housing cage. Retention was assessed 24 hours later by placing the animal on the runway and again evaluating the latency in entering the chamber, using an end-point of 300 seconds (Bammer, loc.cit.).\nIn each experiment, two groups of animals in addition to the treated ones were used, that were defined as follows: • (1) ceiling control animals (treated with placebo and not subjected to amnesia treatment) to ensure that these animals not treated with the amnesia agent remembered the task; • (2) base-line control animals (treated with placebo and subjected to amnesia treatment) to ensure that ECS produced amnesia in the animals not treated with the compounds of the present invention.\nThe sum ΣAij encompasses all the possible pairs obtained by combining each term Xi with each term Xj.",
  "key": {"[1]": {"settings": "dose equimolar to 0.9 mg/kg PIRACETAM"}, "[2]": {"settings": "dose equimolar to 9 mg/kg PIRACETAM"}},
  "data": [
    {"compound": "N[C@H]1CCNC1=O", "note": "[ST 802, (S)-3-amino-2-pyrrolidinone, reference compound]", "values": [
      {"measurement": "AR (percentage of amnesia reversal)", "setting": "[1]", "result": 24, "unit": "%"}
    ]},
    {"compound": "O=C(N[C@H]1CCNC1=O)c1cccc(C(F)(F)F)c1", "note": "[ST 835, (S)-3-(3-trifluoromethylbenzoylamino)-2-pyrrolidinone]", "values": [
      {"measurement": "AR (percentage of amnesia reversal)", "setting": "[1]", "result": 51, "unit": "%"},
      {"measurement": "AR (percentage of amnesia reversal)", "setting": "[2]", "result": 58, "unit": "%"}
    ]},
    {"compound": "O=CN[C@H]1CCNC1=O", "note": "[ST 879, (S)-3-(formylamino)-2-pyrrolidinone]", "values": [
      {"measurement": "AR (percentage of amnesia reversal)", "setting": "[1]", "result": 53, "unit": "%"},
      {"measurement": "AR (percentage of amnesia reversal)", "setting": "[2]", "result": 9, "unit": "%"}
    ]}
  ]
}
